Paper PMC5532286, “In silico, in vitro, X-ray crystallography, and integrated strategies for discovering spermidine synthase inhibitors for Chagas disease” (Scientific Reports, 2017)
Read-outs that look alike come from different tables or passages of the source.

Columns and labels:
[1] = biological target: T1, TcSpdSyn (Trypanosoma cruzi, UniProt Q4DA73); assay: biochemical; assay type: biochemical; conditions: for Hill (4PL curve fitting parameter) / Max (4PL curve fitting parameter, inhibition%) / min (4PL curve fitting parameter, inhibition%) / LoggedX50 (4PL curve fitting parameter): Supplementary Table 3; for LoggedX50 (4PL curve fitting parameter): Log10 of X50
Experimental: To identify TcSpdSyn inhibitors, we performed an in vitro enzyme inhibition assay on 176 compounds sourced from the chemical compound library at Astellas Pharma.
The TcSpdSyn inhibition assay was performed essentially as previously[27] described. Briefly, the assay was an enzyme-coupled assay incorporating spermidine/spermine N(1)-acetyltransferase 1 (SSAT1). 7-Diethylamino-3-(4-maleimidylphenyl)-4-methylcoumarin (CPM) (cat. D-346, Thermo Fischer Scientific) was used to measure the coenzyme A produced by the SSAT1 reaction. […] The fluorescence signal was then detected in a plate reader (Paradigm, Molecular Devices Inc.) with excitation at 405 nm and emission at 530 nm. Each IC50 value was measured using eight different concentrations in quadruplicate. […] Compounds 1, 3, and 4 were used in their salt forms, whereas compound 2 was used in its free form. The corresponding salts were oxalic acid for compound 1 and HCl for compounds 3 and 4. These compounds were dissolved in dimethyl sulfoxide (DMSO), and the maximum final DMSO concentration in the assays was 1.3%.
Supplementary Figure 3. The fitting curve for IC50 calculation of the compounds on Table 1 (Compounds 1, 2, 3, 4, and 4MCHA correspond to (a), (b), (c), (d) and (e), respectively). The vertical line and horizontal axis's represent inhibition% for TcSpdSyn and compound concentration. The closed circles show the inhibition% measured at each dose. The error bars indicate the standard error of the inhibition% measured at each dose. For curve fitting, the following four paramter logoistic (4PL) model1 is used. The paramter […]

[2] = biological target: T1, TcSpdSyn; design: method as in PMID 26327378; conditions: cited from earlier work

T1 sequence (Q4DA73 entry or part of it): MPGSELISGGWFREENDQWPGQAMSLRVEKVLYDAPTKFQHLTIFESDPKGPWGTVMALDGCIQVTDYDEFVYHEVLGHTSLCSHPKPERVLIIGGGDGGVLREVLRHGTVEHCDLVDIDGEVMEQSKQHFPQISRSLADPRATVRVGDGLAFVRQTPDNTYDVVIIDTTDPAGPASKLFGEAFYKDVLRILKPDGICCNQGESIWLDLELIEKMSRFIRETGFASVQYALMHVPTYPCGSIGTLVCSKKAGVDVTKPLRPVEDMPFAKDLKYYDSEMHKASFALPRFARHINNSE

| SMILES | IC50 [1] [µM] | Hill (4PL curve fitting parameter) [1] | Max (4PL curve fitting parameter, inhibition%) [1] | min (4PL curve fitting parameter, inhibition%) [1] | LoggedX50 (4PL curve fitting parameter) [1] | IC50 ([1]; read-out: IC50 for TcSpdSyn) [µM] | IC50 [2] [µM] |
| --- | --- | --- | --- | --- | --- | --- | --- |
| CCOc1ccc2c(c1)c(CCN)cn2CC [Compound 3, 2-(5-Ethoxy-1-ethyl-1H-indol-3-yl)ethanamine] | 113 | 1.44 | 100.00 | 0.00 | 2.05 | – | – |
| O=c1nc(Nc2nc(O)nc(O)n2)sc2ccccc12 [Compound 2, 2-[(4,6-dihydroxy-1,3,5-triazin-2-yl)amino]-4H-1,3-benzothiazin-4-one] | – | 1.27 | 100.00 | 0.00 | 1.46 | 28 | – |
| NCCc1ccc(O)c(O)c1 [Compound 4, 4-(2-Aminoethyl)-1,2-benzenediol] | – | 1.03 | 100.00 | 0.00 | 1.82 | 66 | – |
| NCCc1ccccc1F [Compound 1, 2-(2-Fluorophenyl)ethanamine] | 124 | 0.90 | 100.00 | 0.00 | 2.09 | – | – |
| C[C@H]1CC[C@H](N)CC1 [Compound 4MCHA, trans-4-methylcyclohexylamine, reference compound] | – | 1.01 | 100.00 | 0.00 | 0.29 | 1.9 | 1.7 |
